Data published in PubChem BioAssay (NCI).
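Each compound was tested at five concentrations against cells in 96-well plates for 48 hours. TGI denotes the concentration required for complete inhibition of growth.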

Legend:
Assay in all cases: growth of human tumour cells (NCI), 48 h
[1] = system: HOP-62 NSCLC
[2] = system: SK-MEL-28 melanoma
[3] = system: HT29 colon
[4] = system: SK-MEL-2 melanoma
[5] = system: ACHN renal
[6] = system: NCI-H23 lung
[7] = system: TK-10 renal
[8] = system: RXF 393 renal
[9] = system: 786-0 renal
[10] = system: NCI-H460 lung
[11] = system: UACC-257 melanoma
[12] = system: RXF-631 renal
[13] = system: HL-60(TB) leukemia
[14] = system: SN12C renal
[15] = system: HOP-18 NSCLC
[16] = system: DLD-1 colon
[17] = system: MALME-3M melanoma
[18] = system: UO-31 renal
[19] = system: HCC-2998 colon
[20] = system: DMS 273 small cell lung
[21] = system: LXFL 529 NSCLC
[22] = system: MOLT-4 leukemia
[23] = system: OVCAR-3 ovarian
[24] = system: A498 renal
[25] = system: U251 CNS
[26] = system: OVCAR-8 ovarian
[27] = system: CAKI-1 renal
[28] = system: HCT-15 colon
[29] = system: NCI-H522 lung
[30] = system: OVCAR-5 ovarian
[31] = system: SF-295 CNS
[32] = system: KM12 colon
[33] = system: SK-MEL-5 melanoma
[34] = system: M19-MEL melanoma
[35] = system: HOP-92 NSCLC
[36] = system: SK-OV-3 ovarian
[37] = system: M14 melanoma
[38] = system: A549 NSCLC
[39] = system: IGROV1 ovarian
[40] = system: CCRF-CEM leukemia
[41] = system: RPMI-8226 leukemia
[42] = system: LOX IMVI melanoma
[43] = system: SNB-75 CNS
[44] = system: SW-620 colon
[45] = system: K-562 leukemia
[46] = system: XF 498 CNS
[47] = system: SNB-78 CNS
[48] = system: KM20L2 colon
[49] = system: EKVX NSCLC
[50] = system: SR leukemia
[51] = system: UACC-62 melanoma
[52] = system: DMS 114 small cell lung
[53] = system: SNB-19 CNS
[54] = system: COLO 205 colon
[55] = system: SF-268 CNS
[56] = system: OVCAR-4 ovarian
[57] = system: SF-539 CNS
[58] = system: HCT-116 colon
[59] = system: NCI-H226 lung

CCN(CC)CCCC(C)Nc1c2cc(OC)cc(C)c2nc2c(C)c(Cl)ccc12 (stereo not given)
TGI [1]: 3.08 µM | TGI [2]: 3.39 µM | TGI [3]: 3.03 µM | TGI [4]: 3.44 µM | TGI [5]: 3.09 µM | TGI [6]: 2.82 µM | TGI [7]: 3.19 µM | TGI [8]: 3.54 µM | TGI [9]: 3.02 µM | TGI [10]: 3.32 µM | TGI [11]: 3.31 µM | TGI [12]: 3.23 µM | TGI [13]: 4.26 µM | TGI [14]: 2.93 µM | TGI [15]: 2.91 µM | TGI [16]: 2.93 µM | TGI [17]: 3.52 µM | TGI [18]: 3.1 µM | TGI [19]: 3.03 µM | TGI [20]: 3.14 µM | TGI [21]: 2.98 µM | TGI [22]: 3.26 µM | TGI [23]: 3.27 µM | TGI [24]: 6.3 µM | TGI [25]: 3.26 µM | TGI [26]: 3.19 µM | TGI [27]: 4.81 µM | TGI [28]: 3.2 µM | TGI [29]: 3.06 µM | TGI [30]: 3.92 µM | TGI [31]: 3.71 µM | TGI [32]: 2.99 µM | TGI [33]: 3.28 µM | TGI [34]: 3.13 µM | TGI [35]: 3.22 µM | TGI [36]: 3.06 µM | TGI [37]: 3.68 µM | TGI [38]: 3.31 µM | TGI [39]: 3.09 µM | TGI [40]: 3.25 µM

O=C1c2ccccc2C2CCC1c1ccccc12 (stereo not given)
TGI [1]: > 100 µM | TGI [41]: 57 µM | TGI [2]: > 100 µM | TGI [42]: > 100 µM | TGI [43]: > 100 µM | TGI [44]: > 100 µM | TGI [3]: > 100 µM | TGI [45]: > 100 µM | TGI [46]: 91.6 µM | TGI [4]: 94 µM | TGI [5]: > 100 µM | TGI [6]: 65 µM | TGI [7]: 93.9 µM | TGI [8]: 78 µM | TGI [9]: > 100 µM | TGI [47]: > 100 µM | TGI [10]: > 100 µM | TGI [48]: > 100 µM | TGI [11]: 76.6 µM | TGI [13]: 38 µM | TGI [14]: > 100 µM | TGI [15]: > 100 µM | TGI [49]: > 100 µM | TGI [16]: > 100 µM | TGI [17]: 51.8 µM | TGI [18]: 70.5 µM | TGI [50]: 58.2 µM | TGI [51]: > 100 µM | TGI [19]: > 100 µM | TGI [52]: 57 µM | TGI [20]: 71.4 µM | TGI [53]: > 100 µM | TGI [21]: > 100 µM | TGI [22]: 45.7 µM | TGI [23]: > 100 µM | TGI [24]: > 100 µM | TGI [25]: > 100 µM | TGI [26]: > 100 µM | TGI [27]: > 100 µM | TGI [28]: > 100 µM | TGI [29]: 70.6 µM | TGI [30]: > 100 µM | TGI [31]: > 100 µM | TGI [32]: > 100 µM | TGI [33]: 34.1 µM | TGI [34]: 96.1 µM | TGI [54]: 46.8 µM | TGI [35]: 72.2 µM | TGI [55]: > 100 µM | TGI [56]: 76.1 µM | TGI [36]: > 100 µM | TGI [37]: > 100 µM | TGI [57]: > 100 µM | TGI [58]: 46.4 µM | TGI [38]: > 100 µM | TGI [39]: > 100 µM | TGI [59]: > 100 µM | TGI [40]: > 100 µM

COc1c(-c2ccccc2)nc2ccc(Oc3ccccc3)nn12
TGI [1]: > 100 µM | TGI [41]: > 70.9 µM | TGI [2]: 99.5 µM | TGI [42]: > 100 µM | TGI [43]: > 100 µM | TGI [44]: > 100 µM | TGI [3]: > 100 µM | TGI [45]: > 100 µM | TGI [46]: 66.9 µM | TGI [4]: > 94.4 µM | TGI [5]: > 100 µM | TGI [6]: > 96.5 µM | TGI [7]: > 100 µM | TGI [8]: > 73.6 µM | TGI [9]: > 100 µM | TGI [47]: > 100 µM | TGI [10]: > 100 µM | TGI [48]: > 100 µM | TGI [11]: > 96.5 µM | TGI [13]: > 57.3 µM | TGI [14]: > 100 µM | TGI [15]: > 87.1 µM | TGI [49]: > 100 µM | TGI [16]: > 100 µM | TGI [17]: > 92.6 µM | TGI [18]: > 100 µM | TGI [50]: > 100 µM | TGI [51]: > 100 µM | TGI [19]: > 100 µM | TGI [52]: > 87.7 µM | TGI [20]: > 100 µM | TGI [53]: > 100 µM | TGI [21]: > 100 µM | TGI [22]: > 64.7 µM | TGI [23]: > 100 µM | TGI [24]: > 66.5 µM | TGI [25]: > 100 µM | TGI [26]: > 100 µM | TGI [27]: > 100 µM | TGI [28]: > 100 µM | TGI [29]: > 100 µM | TGI [30]: > 100 µM | TGI [31]: > 100 µM | TGI [32]: > 100 µM | TGI [33]: > 63.2 µM | TGI [34]: > 100 µM | TGI [54]: > 65 µM | TGI [35]: > 100 µM | TGI [55]: > 100 µM | TGI [56]: > 71.3 µM | TGI [36]: > 100 µM | TGI [37]: > 100 µM | TGI [57]: > 100 µM | TGI [58]: > 100 µM | TGI [38]: > 100 µM | TGI [39]: > 100 µM | TGI [59]: 98.1 µM | TGI [40]: 99.3 µM

CC1CCC2CC(=O)OC([C@@H]3C(=O)O[C@@H](C4=CCCC4)C4C(C)CCC43)C12 (stereo not given in full)
TGI [1]: > 100 µM | TGI [41]: > 100 µM | TGI [2]: > 100 µM | TGI [42]: > 100 µM | TGI [43]: > 100 µM | TGI [44]: > 100 µM | TGI [3]: > 100 µM | TGI [45]: > 100 µM | TGI [46]: > 100 µM | TGI [4]: > 100 µM | TGI [5]: > 100 µM | TGI [6]: > 100 µM | TGI [7]: > 100 µM | TGI [8]: > 100 µM | TGI [9]: > 100 µM | TGI [47]: > 100 µM | TGI [10]: > 100 µM | TGI [48]: > 100 µM | TGI [11]: > 100 µM | TGI [13]: 65.1 µM | TGI [14]: > 100 µM | TGI [15]: > 100 µM | TGI [49]: > 100 µM | TGI [16]: > 100 µM | TGI [17]: > 100 µM | TGI [18]: > 100 µM | TGI [50]: > 100 µM | TGI [51]: > 100 µM | TGI [19]: > 100 µM | TGI [52]: > 100 µM | TGI [20]: > 100 µM | TGI [53]: > 100 µM | TGI [21]: > 100 µM | TGI [22]: > 100 µM | TGI [23]: > 100 µM | TGI [25]: > 100 µM | TGI [26]: > 100 µM | TGI [27]: > 100 µM | TGI [28]: > 100 µM | TGI [29]: > 100 µM | TGI [31]: > 100 µM | TGI [32]: > 100 µM | TGI [33]: > 100 µM | TGI [34]: > 100 µM | TGI [54]: > 100 µM | TGI [55]: > 100 µM | TGI [36]: > 100 µM | TGI [37]: > 100 µM | TGI [57]: > 100 µM | TGI [58]: > 100 µM | TGI [38]: > 100 µM | TGI [39]: > 100 µM | TGI [59]: > 100 µM | TGI [40]: > 100 µM
